Assay results reported in patent publication US12281149B2, “Modulators of G-protein coupled receptors” (priority 2021, dated 2025).
*1 amine or outer side, *2 acyl side, *3 side chain or, on linkers, in order; H or OH if unused. Where a SMILES comes first, the peptide text is derived from it. Side-chain parts run from the residue outwards. [ ]: non-standard residue; d: D form. The star is where a group is joined. C20 diacid = O=C(O)CCCCCCCCCCCCCCCCCCC(=O)*; γGlu = O=C(O)[C@H](CCC(=O)[*:2])N[*:1]; X27 = O=C1CC(C(=O)*)(c2ccccc2)CN1; X40 = CC(C)(C(=O)*)n1cc(Cl)cn1; X83 = Cc1ccn(C(C)(C)C(=O)*)n1; X24 = O=C(C1(c2cccnc2)CCC1)*; AEEA = NCCOCCOCC(=O)O; Aib = CC(C)(N)C(=O)O; GABA = NCCCC(=O)O; βAla = NCCC(=O)O

How the values were obtained:
GLP-1 receptor = GLP-1 receptor (Homo sapiens, UniProt P43220); assay: HitHunter cAMP assay, GLP-1 receptor; assay type: cell-based; conditions: CHO cells, cAMP; normalized to maximum signal from GLP-1 (high) and DMSO (low); read-out: Emax GLP-1R
GIP receptor = target: T1, GIP receptor (Homo sapiens, UniProt P48546); assay: HitHunter cAMP assay, GIP receptor; assay type: cell-based; conditions: CHO cells, cAMP; normalized to maximum signal from GIP (high) and DMSO (low); read-out: Emax GIP-1R
T1 sequence (P48546 22-466): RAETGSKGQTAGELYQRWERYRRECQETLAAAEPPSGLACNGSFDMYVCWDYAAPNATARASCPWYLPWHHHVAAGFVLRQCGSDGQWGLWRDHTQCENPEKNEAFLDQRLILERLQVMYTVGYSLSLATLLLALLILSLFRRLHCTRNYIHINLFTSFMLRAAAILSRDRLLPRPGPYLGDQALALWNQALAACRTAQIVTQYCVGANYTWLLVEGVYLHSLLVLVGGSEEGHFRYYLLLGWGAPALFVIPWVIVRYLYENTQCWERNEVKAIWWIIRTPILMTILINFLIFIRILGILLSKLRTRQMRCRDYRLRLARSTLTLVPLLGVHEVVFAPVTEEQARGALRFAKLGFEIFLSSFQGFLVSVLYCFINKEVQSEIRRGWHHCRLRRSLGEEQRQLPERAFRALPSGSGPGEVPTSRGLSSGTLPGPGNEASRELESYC

Sequence of GLP-1 receptor (P43220 24-463): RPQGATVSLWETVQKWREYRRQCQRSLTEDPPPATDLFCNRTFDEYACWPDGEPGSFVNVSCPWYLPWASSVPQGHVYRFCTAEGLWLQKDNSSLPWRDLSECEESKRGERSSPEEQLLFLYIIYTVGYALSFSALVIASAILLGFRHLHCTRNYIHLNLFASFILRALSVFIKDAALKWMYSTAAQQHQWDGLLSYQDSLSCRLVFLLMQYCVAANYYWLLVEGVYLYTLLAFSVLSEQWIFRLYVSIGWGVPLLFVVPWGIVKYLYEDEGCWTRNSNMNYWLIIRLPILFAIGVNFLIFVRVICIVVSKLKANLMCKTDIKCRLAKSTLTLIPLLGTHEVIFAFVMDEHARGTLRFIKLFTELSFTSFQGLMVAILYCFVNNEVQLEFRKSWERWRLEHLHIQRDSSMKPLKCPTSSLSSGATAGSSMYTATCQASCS

SMILES	Emax (GLP-1 receptor)	Emax (GIP receptor)
CC[C@H](C)[C@H](NC(=O)[C@H](CC(C)C)NC(=O)[C@H](Cc1c[nH]c2ccccc12)NC(=O)[C@H](CCC(N)=O)NC(=O)[C@@H](NC(=O)[C@H](Cc1ccccc1)NC(=O)[C@H](C)NC(=O)[C@H](CCCCNC(=O)COCCOCCNC(=O)COCCOCCNC(=O)CC[C@H](NC(=O)CCCCCCCCCCCCCCCCCCC(=O)O)C(=O)O)NC(=O)[C@H](CCC(N)=O)NC(=O)[C@H](C)NC(=O)[C@@H](NC(=O)[C@H](CCCCN)NC(=O)[C@H](CC(=O)O)NC(=O)[C@H](CC(C)C)NC(=O)C(C)(C)NC(=O)[C@@H](NC(=O)[C@H](CO)NC(=O)[C@H](Cc1ccc(O)cc1)NC(=O)[C@H](CC(=O)O)NC(=O)[C@H](CO)NC(=O)[C@@H](NC(=O)[C@H](Cc1ccccc1)NC(=O)[C@@H](NC(=O)CNC(=O)[C@H](CCC(=O)O)NC(=O)CCCNC(=O)C(C)(C)n1cc(Cl)cn1)[C@@H](C)O)[C@@H](C)O)[C@@H](C)CC)[C@@H](C)CC)C(C)C)C(=O)N[C@@H](C)C(=O)NCC(=O)NCC(=O)N1CCC[C@H]1C(=O)N[C@@H](CO)C(=O)N[C@@H](CO)C(=O)NCC(=O)N[C@@H](C)C(=O)N1CCC[C@H]1C(=O)N1CCC[C@H]1C(=O)N1CCC[C@H]1C(=O)N[C@@H](CO)C(N)=O [Compound 248] ({X40-GABA}-EGTFTSDYSI[Aib]LDKIAQK([AEEA-AEEA-γGlu-C20 diacid])AFVQWLIAGGPSSGAPPPS-NH2; C-terminus assumed)	90%	104%
CC[C@H](C)[C@H](NC(=O)[C@H](CC(C)C)NC(=O)[C@H](Cc1c[nH]c2ccccc12)NC(=O)[C@H](CCC(N)=O)NC(=O)[C@@H](NC(=O)[C@H](Cc1ccccc1)NC(=O)[C@H](C)NC(=O)[C@H](CCCCNC(=O)COCCOCCNC(=O)COCCOCCNC(=O)CC[C@H](NC(=O)CCCCCCCCCCCCCCCCCCC(=O)O)C(=O)O)NC(=O)[C@H](CCC(N)=O)NC(=O)[C@H](C)NC(=O)[C@@H](NC(=O)[C@H](CCCCN)NC(=O)[C@H](CC(=O)O)NC(=O)[C@H](CC(C)C)NC(=O)C(C)(C)NC(=O)[C@@H](NC(=O)[C@H](CO)NC(=O)[C@H](Cc1ccc(O)cc1)NC(=O)[C@H](CC(=O)O)NC(=O)[C@H](CO)NC(=O)[C@@H](NC(=O)[C@H](Cc1ccccc1)NC(=O)[C@@H](NC(=O)CNC(=O)[C@H](CCC(=O)O)NC(=O)CCCNC(=O)C1(c2ccccc2)CNC(=O)C1)[C@@H](C)O)[C@@H](C)O)[C@@H](C)CC)[C@@H](C)CC)C(C)C)C(=O)N[C@@H](C)C(=O)NCC(=O)NCC(=O)N1CCC[C@H]1C(=O)N[C@@H](CO)C(=O)N[C@@H](CO)C(=O)NCC(=O)N[C@@H](C)C(=O)N1CCC[C@H]1C(=O)N1CCC[C@H]1C(=O)N1CCC[C@H]1C(=O)N[C@@H](CO)C(N)=O (stereo partly shown) [Compound 249] ({X27-GABA}-EGTFTSDYSI[Aib]LDKIAQK([AEEA-AEEA-γGlu-C20 diacid])AFVQWLIAGGPSSGAPPPS-NH2; C-terminus assumed)	97%	104%
CC[C@H](C)[C@H](NC(=O)[C@H](CC(C)C)NC(=O)[C@H](Cc1c[nH]c2ccccc12)NC(=O)[C@H](CCC(N)=O)NC(=O)[C@@H](NC(=O)[C@H](Cc1ccccc1)NC(=O)[C@H](C)NC(=O)[C@H](CCCCNC(=O)COCCOCCNC(=O)COCCOCCNC(=O)CC[C@H](NC(=O)CCCCCCCCCCCCCCCCCCC(=O)O)C(=O)O)NC(=O)[C@H](CCC(N)=O)NC(=O)[C@H](C)NC(=O)[C@@H](NC(=O)[C@H](CCCCN)NC(=O)[C@H](CC(=O)O)NC(=O)[C@H](CC(C)C)NC(=O)C(C)(C)NC(=O)[C@@H](NC(=O)[C@H](CO)NC(=O)[C@H](Cc1ccc(O)cc1)NC(=O)[C@H](CC(=O)O)NC(=O)[C@H](CO)NC(=O)[C@@H](NC(=O)[C@H](Cc1ccccc1)NC(=O)[C@@H](NC(=O)CNC(=O)[C@H](CCC(=O)O)NC(=O)CCNC(=O)C1(c2ccccc2)CNC(=O)C1)[C@@H](C)O)[C@@H](C)O)[C@@H](C)CC)[C@@H](C)CC)C(C)C)C(=O)N[C@@H](C)C(=O)NCC(=O)NCC(=O)N1CCC[C@H]1C(=O)N[C@@H](CO)C(=O)N[C@@H](CO)C(=O)NCC(=O)N[C@@H](C)C(=O)N1CCC[C@H]1C(=O)N1CCC[C@H]1C(=O)N1CCC[C@H]1C(=O)N[C@@H](CO)C(N)=O (stereo partly shown) [Compound 250] ({X27-βAla}-EGTFTSDYSI[Aib]LDKIAQK([AEEA-AEEA-γGlu-C20 diacid])AFVQWLIAGGPSSGAPPPS-NH2; C-terminus assumed)	90%	89%
CC[C@H](C)[C@H](NC(=O)[C@H](CC(C)C)NC(=O)[C@H](Cc1c[nH]c2ccccc12)NC(=O)[C@H](CCC(N)=O)NC(=O)[C@@H](NC(=O)[C@H](Cc1ccccc1)NC(=O)[C@H](C)NC(=O)[C@H](CCCCNC(=O)COCCOCCNC(=O)COCCOCCNC(=O)CC[C@H](NC(=O)CCCCCCCCCCCCCCCCCCC(=O)O)C(=O)O)NC(=O)[C@H](CCC(N)=O)NC(=O)[C@H](C)NC(=O)[C@@H](NC(=O)[C@H](CCCCN)NC(=O)[C@H](CC(=O)O)NC(=O)[C@H](CC(C)C)NC(=O)C(C)(C)NC(=O)[C@@H](NC(=O)[C@H](CO)NC(=O)[C@H](Cc1ccc(O)cc1)NC(=O)[C@H](CC(=O)O)NC(=O)[C@H](CO)NC(=O)[C@@H](NC(=O)[C@H](Cc1ccccc1)NC(=O)[C@@H](NC(=O)CNC(=O)[C@H](CCC(=O)O)NC(=O)CCCNC(=O)C1(c2cccnc2)CCC1)[C@@H](C)O)[C@@H](C)O)[C@@H](C)CC)[C@@H](C)CC)C(C)C)C(=O)N[C@@H](C)C(=O)NCC(=O)NCC(=O)N1CCC[C@H]1C(=O)N[C@@H](CO)C(=O)N[C@@H](CO)C(=O)NCC(=O)N[C@@H](C)C(=O)N1CCC[C@H]1C(=O)N1CCC[C@H]1C(=O)N1CCC[C@H]1C(=O)N[C@@H](CO)C(N)=O [Compound 251] ({X24-GABA}-EGTFTSDYSI[Aib]LDKIAQK([AEEA-AEEA-γGlu-C20 diacid])AFVQWLIAGGPSSGAPPPS-NH2; C-terminus assumed)	91%	92%
CC[C@H](C)[C@H](NC(=O)[C@H](CC(C)C)NC(=O)[C@H](Cc1c[nH]c2ccccc12)NC(=O)[C@H](CCC(N)=O)NC(=O)[C@@H](NC(=O)[C@H](Cc1ccccc1)NC(=O)[C@H](C)NC(=O)[C@H](CCCCNC(=O)COCCOCCNC(=O)COCCOCCNC(=O)CC[C@H](NC(=O)CCCCCCCCCCCCCCCCCCC(=O)O)C(=O)O)NC(=O)[C@H](CCC(N)=O)NC(=O)[C@H](C)NC(=O)[C@@H](NC(=O)[C@H](CCCCN)NC(=O)[C@H](CC(=O)O)NC(=O)[C@H](CC(C)C)NC(=O)C(C)(C)NC(=O)[C@@H](NC(=O)[C@H](CO)NC(=O)[C@H](Cc1ccc(O)cc1)NC(=O)[C@H](CC(=O)O)NC(=O)[C@H](CO)NC(=O)[C@@H](NC(=O)[C@H](Cc1ccccc1)NC(=O)[C@@H](NC(=O)CNC(=O)[C@H](CCC(=O)O)NC(=O)CCCNC(=O)C(C)(C)n1ccc(C)n1)[C@@H](C)O)[C@@H](C)O)[C@@H](C)CC)[C@@H](C)CC)C(C)C)C(=O)N[C@@H](C)C(=O)NCC(=O)NCC(=O)N1CCC[C@H]1C(=O)N[C@@H](CO)C(=O)N[C@@H](CO)C(=O)NCC(=O)N[C@@H](C)C(=O)N1CCC[C@H]1C(=O)N1CCC[C@H]1C(=O)N1CCC[C@H]1C(=O)N[C@@H](CO)C(N)=O [Compound 252] ({X83-GABA}-EGTFTSDYSI[Aib]LDKIAQK([AEEA-AEEA-γGlu-C20 diacid])AFVQWLIAGGPSSGAPPPS-NH2; C-terminus assumed)	90%	100%
